From patent publication US8124624B2, “Substituted sulfonamide compounds” (Gruenenthal GmbH, priority 2008, dated 2012)
Read-outs that look alike come from different tables or passages of the source.

Assays:
B1R of the rat = biological target: T1, B1R of the rat (Rattus norvegicus, UniProt P97583); assay: FLIPR Ca2+ influx assay, B1R antagonism, rat (rB1R CHO K1 cells); format: cell-based
T1 construct: expressed in transfected cells; host or cells: CHO K1 cells (rB1R cells)
T1 sequence (P97583 1-337): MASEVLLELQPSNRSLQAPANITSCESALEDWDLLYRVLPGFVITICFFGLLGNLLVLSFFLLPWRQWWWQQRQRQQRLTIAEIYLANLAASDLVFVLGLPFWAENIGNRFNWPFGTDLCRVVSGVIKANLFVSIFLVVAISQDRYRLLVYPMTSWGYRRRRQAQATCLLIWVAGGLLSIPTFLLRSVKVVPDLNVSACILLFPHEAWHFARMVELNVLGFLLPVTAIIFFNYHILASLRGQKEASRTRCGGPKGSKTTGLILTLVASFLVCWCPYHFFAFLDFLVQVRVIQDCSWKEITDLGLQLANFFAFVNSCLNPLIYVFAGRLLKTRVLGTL
Method in brief: (§1)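 CHO K1 cells stably expressing human or rat B1R were loaded with Fluo-4, and Ca^2+ fluorescence was read on a FLIPR. After 10–20 min with test substance, agonist was added at EC80: Lys-Des-Arg^9-bradykinin for hB1R, Des-Arg^9-bradykinin for rB1R. % inhibition is relative to maximal inhibition; IC50 from multiple concentrations, n=2–3, N≥2.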

human B1R = biological target: T2, human B1R (Homo sapiens, UniProt P46663); assay: FLIPR Ca2+ influx assay, B1R antagonism, human (hB1R CHO K1 cells); format: cell-based
T2 construct: expressed in transfected cells; host or cells: CHO K1 cells (hB1R cells)
T2 sequence (P46663 1-353): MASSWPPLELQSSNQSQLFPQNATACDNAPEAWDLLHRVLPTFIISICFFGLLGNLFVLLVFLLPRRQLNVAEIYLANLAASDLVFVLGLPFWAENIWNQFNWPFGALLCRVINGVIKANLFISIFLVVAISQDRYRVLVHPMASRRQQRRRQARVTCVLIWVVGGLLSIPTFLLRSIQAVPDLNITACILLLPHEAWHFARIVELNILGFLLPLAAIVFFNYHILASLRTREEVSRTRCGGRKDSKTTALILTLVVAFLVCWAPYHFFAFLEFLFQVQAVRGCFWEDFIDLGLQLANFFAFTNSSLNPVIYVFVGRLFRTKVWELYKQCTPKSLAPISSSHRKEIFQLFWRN
Method in brief: as §1

[1] = test substance 10 μM, CHO K1 cells stably transfected with rat B1R, agonist Des-Arg9-bradykinin at EC80, % inhibition compared with maximum achievable inhibition, read-out: B1R antagonism, rat [10 μM] % inhibition
[2] = test substance 10 μM, CHO K1 cells stably transfected with human B1R, agonist Lys-Des-Arg9-bradykinin at EC80, % inhibition compared with maximum achievable inhibition, read-out: B1R antagonism, human [10 μM] % inhibition
[3] = test substance 10 μM, CHO K1 cells stably transfected with rat B1R, agonist Des-Arg9-bradykinin at EC80, % inhibition compared with maximum achievable inhibition
[4] = test substance 10 μM, CHO K1 cells stably transfected with human B1R, agonist Lys-Des-Arg9-bradykinin at EC80, % inhibition compared with maximum achievable inhibition
[5] = CHO-K1, read-out: B1R antagonism, rat [10 μM] % inhibition
[6] = CHO-K1, read-out: B1R antagonism, human [10 μM] % inhibition

Compound | inhibition at 10 µM (B1R of the rat; [1]) [%] | inhibition at 10 µM (human B1R; [2]) [%] | further results
Cc1cc(S(=O)(=O)N2CCCCC2CCC(=O)N2CCC(CCN3CCCC3)(c3cccnc3)CC2)c(C)cc1Cl (centres unmarked) [Example 5, 3-(1-(4-Chloro-2,5-dimethylphenylsulfonyl)piperidin-2-yl)-1-(4-(pyridin-3-yl)-4-(2-(pyrrolidin-1-yl)ethyl)piperidin-1-yl)propan-1-one] | 61 | 101 | 
COc1cc(C)c(S(=O)(=O)N2CCCCC2COCC(=O)N2CCC(CCCN3CCCC3)(c3cccnc3)CC2)c(C)c1 (centres unmarked) [Example 16, 2-((1-(4-Methoxy-2,6-dimethylphenylsulfonyl)piperidin-2-yl)methoxy)-1-(4-(pyridin-3-yl)-4-(3-(pyrrolidin-1-yl)propyl)piperidin-1-yl)ethanone] | 102 | 97 | 
COc1cc(C)c(S(=O)(=O)N2CCCCC2COCC(=O)N2CCC(CCCN3CCCC3)(c3cccnc3)CC2)c(C)c1 (centres unmarked) [Example 27, 2-[[1-[(4-Methoxy-2,6-dimethyl-phenyl)sulfonyl]-piperidin-2-yl]-methoxy]-1-[4-pyridin-3-yl-4-(3-pyrrolidin-1-yl-propyl)-piperidin-1-yl]-ethanone] |  |  | B1R antagonism, rat [10 μM] % inhibition (B1R of the rat; [3]): 102%; B1R antagonism, human [10 μM] % inhibition (human B1R; [4]): 100%
O=C(CC1CCCCN1S(=O)(=O)c1cccc(C(F)(F)F)c1)N1CCC(CCCN2CCCC2)(c2cccnc2)CC1 (centres unmarked) [Example 14, 1-(4-(Pyridin-3-yl)-4-(3-(pyrrolidin-1-yl)propyl)piperidin-1-yl)-2-(1-(3-(trifluoromethyl)phenylsulfonyl)piperidin-2-yl)ethanone] | 64 | 35 | 
COc1cc(C)c(S(=O)(=O)N(C)CCOCC(=O)N2CCC(CCN3CCCC3)(c3cccnc3)CC2)c(C)c1 [Example 3, 4-Methoxy-N,2,6-trimethyl-N-(2-(2-oxo-2-(4-(pyridin-3-yl)-4-(2-(pyrrolidin-1-yl)ethyl)piperidin-1-yl)ethoxy)ethyl)benzenesulfonamide] |  |  | inhibition at 10 µM (B1R of the rat; [5]): 101%; inhibition at 10 µM (human B1R; [6]): 103%
CN(C)CCC1(c2cccnc2)CCN(C(=O)COCC2CCc3ccccc3N2S(=O)(=O)c2ccc(Cl)c(Cl)c2)CC1 (centres unmarked) [Example 12, 2-((1-(3,4-Dichlorophenylsulfonyl)-1,2,3,4-tetrahydroquinolin-2-yl)methoxy)-1-(4-(2-(dimethylamino)ethyl)-4-(pyridin-3-yl)piperidin-1-yl)ethanone] | 90 | 103 | 
O=C(CC1CCCCN1S(=O)(=O)c1cccc(C(F)(F)F)c1)N1CCC(CCN2CCCC2)(c2cccnc2)CC1 (centres unmarked) [Example 4, 1-(4-(Pyridin-3-yl)-4-(2-(pyrrolidin-1-yl)ethyl)piperidin-1-yl)-2-(1-(3-(trifluoromethyl)phenylsulfonyl)piperidin-2-yl)ethanone] |  |  | inhibition at 10 µM (B1R of the rat; [5]): 102%; inhibition at 10 µM (human B1R; [6]): 103%
COc1cc(C)c(S(=O)(=O)N2CCCCC2COCC(=O)N2CCC(CCCN(C)C)(c3cccnc3)CC2)c(C)c1 (centres unmarked) [Example 22, 1-(4-(3-(Dimethylamino)propyl)-4-(pyridin-3-yl)piperidin-1-yl)-2-((1-(4-methoxy-2,6-dimethylphenylsulfonyl)piperidin-2-yl)methoxy)ethanone] | 102 | 98 | 
COc1cc(C)c(S(=O)(=O)N2CCCCC2CCCC(=O)N2CCC(CCCN3CCCC3)(c3cccnc3)CC2)c(C)c1 (centres unmarked) [Example 60, 4-[1-[(4-Methoxy-2,6-dimethyl-phenyl)sulfonyl]-piperidin-2-yl]-1-[4-pyridin-3-yl-4-(3-pyrrolidin-1-yl-propyl)-piperidin-1-yl]-butan-1-one] | 104 | 100 | 
Cc1cccc(Cl)c1S(=O)(=O)N(CCOCC(=O)N1CCC(CCCN2CCCC2)(c2cccc(Cl)c2)CC1)C1CC1 [Example 77, 2-Chloro-N-[2-[2-[4-(3-chlorophenyl)-4-(3-pyrrolidin-1-yl-propyl)-piperidin-1-yl]-2-oxo-ethoxy]-ethyl]-N-cyclopropyl-6-methyl-benzenesulfonic acid amide] | 92 | 100 | 
COc1cc(C)c(S(=O)(=O)N2c3ccccc3OCC2COCC(=O)N2CCC(CCCN3CCCC3)(c3cccnc3)CC2)c(C)c1 (centres unmarked) [Example 68, 2-[[4-[(4-Methoxy-2,6-dimethyl-phenyl)sulfonyl]-3,4-dihydro-2H-[1,4]benzoxazin-3-yl]-methoxy]-1-[4-pyridin-3-yl-4-(3-pyrrolidin-1-yl-propyl)-piperidin-1-yl]-ethanone] |  |  | B1R antagonism, rat [10 μM] % inhibition (B1R of the rat; [3]): 101%; B1R antagonism, human [10 μM] % inhibition (human B1R; [4]): 100%
COc1cc(C)c(S(=O)(=O)N2CCCCC2COCC(=O)N2CCC(CCCN3CCCC3)(c3cccnc3)CC2)c(C)c1 (centres unmarked) [Example 26, 2-[[1-[(4-Methoxy-2,6-dimethyl-phenyl)sulfonyl]-piperidin-2-yl]-methoxy]-1-[4-pyridin-3-yl-4-(3-pyrrolidin-1-yl-propyl)-piperidin-1-yl]-ethanone] |  |  | B1R antagonism, rat [10 μM] % inhibition (B1R of the rat; [3]): 103%; B1R antagonism, human [10 μM] % inhibition (human B1R; [4]): 100%

Further lines, with some results ahead:

inhibition at 10 µM (B1R of the rat; [1]) [%] | inhibition at 10 µM (human B1R; [2]) [%] | Compound | further results
102 | 100 | COc1cc(C)c(S(=O)(=O)N2c3ccccc3OCC2COCC(=O)N2CCC(CCCN3CCCC3)(c3cccnc3)CC2)c(C)c1 (centres unmarked) [Example 67, 2-[[4-[(4-Methoxy-2,6-dimethyl-phenyl)sulfonyl]-3,4-dihydro-2H-[1,4]benzoxazin-3-yl]-methoxy]-1-[4-pyridin-3-yl-4-(3-pyrrolidin-1-yl-propyl)-piperidin-1-yl]-ethanone] | 
85 | 100 | O=C(COCC1CCc2ccccc2N1S(=O)(=O)c1ccc(Cl)c(Cl)c1)N1CCC(CCN2CCCC2)(c2cccnc2)CC1 (centres unmarked) [Example 6, 2-((1-(3,4-Dichlorophenylsulfonyl)-1,2,3,4-tetrahydroquinolin-2-yl)methoxy)-1-(4-(pyridin-3-yl)-4-(2-(pyrrolidin-1-yl)ethyl)piperidin-1-yl)ethanone] | 
103 | 100 | COc1cc(C)c(S(=O)(=O)N(CCOCC(=O)N2CCC(CCCN3CCCC3)(c3cccnc3)CC2)Cc2ccccc2)c(C)c1 [Example 37, N-Benzyl-4-Methoxy-2,6-dimethyl-N-[2-[2-oxo-2-[4-pyridin-3-yl-4-(3-pyrrolidin-1-yl-propyl)-piperidin-1-yl]-ethoxy]-ethyl]-benzenesulfonic acid amide] | 
76 | 84 | Cc1cc(S(=O)(=O)N2CCCCC2CCC(=O)N2CCC(CCCN3CCCC3)(c3cccnc3)CC2)c(C)cc1Cl (centres unmarked) [Example 15, 3-(1-(4-Chloro-2,5-dimethylphenylsulfonyl)piperidin-2-yl)-1-(4-(pyridin-3-yl)-4-(3-(pyrrolidin-1-yl)propyl)piperidin-1-yl)propan-1-one] | 
101 | 97 | COc1cc(C)c(S(=O)(=O)N(C)CCOCC(=O)N2CCC(CCCN3CCCC3)(c3cccnc3)CC2)c(C)c1 [Example 13, 4-Methoxy-N,2,6-trimethyl-N-(2-(2-oxo-2-(4-(pyridin-3-yl)-4-(3-(pyrrolidin-1-yl)propyl)piperidin-1-yl)ethoxy)ethyl)benzenesulfonamide] | 
102 | 104 | COc1cc(C)c(S(=O)(=O)N(C)CCOCC(=O)N2CCC(CCN(C)C)(c3cccnc3)CC2)c(C)c1 [Example 9, N-(2-(2-(4-(2-(Dimethylamino)ethyl)-4-(pyridin-3-yl)piperidin-1-yl)-2-oxoethoxy)ethyl)-4-methoxy-N,2,6-trimethylbenzenesulfonamide] | 
65 | 103 | CN(C)CCC1(c2cccnc2)CCN(C(=O)CC2CCCCN2S(=O)(=O)c2cccc(C(F)(F)F)c2)CC1 (centres unmarked) [Example 10, 1-(4-(2-(Dimethylamino)ethyl)-4-(pyridin-3-yl)piperidin-1-yl)-2-(1-(3-(trifluoromethyl)phenylsulfonyl)piperidin-2-yl)ethanone] | 
